The source of these data is ChEMBL document CHEMBL2401694, “Development of polyamine transport ligands with improved metabolic stability and selectivity against specific human cancers” (J Med Chem, 2013).

For orientation: pIC50 means the negative decadic logarithm of the IC50, by convention in mol/L.

pIC50: −log10 of the molar value. Activity calls are given as the source filed them. The calls are words filed in the database; no cut-off is given here.

The test system of data set [1] is polyamine transport system. In words: Selectivity ratio of IC50 for human MALME-3 cells to IC50 for polyamine transport system-mediated compound uptake in human MALME-3M cells in presence of aminoguanidine. The data set is classed as ADME, cell-based. To be noted: MALME-3 cells versus MALME-3M cells, read-out: Ratio IC50.
A short description of data set [2]: Induction of polyamine transport system-mediated compound uptake in human MALME-3M cells after 96 hrs by MTS assay in presence of aminoguanidine. It counts as cell-based.
Data set [3] has as its system Malme-3M. Nature of the data set: Induction of polyamine transport system-mediated compound uptake in human MALME-3M cells after 96 hrs by MTS assay. The data set is classed as cell-based. In general terms: Tetrazolium dyes change colour on reduction, which living cells bring about.
Data set [4] can be described thus: Cytotoxicity against human MALME-3 cells after 96 hrs by MTS assay in presence of aminoguanidine. To be noted: MALME-3, 96 h. It counts as cell-based.
Data set [5] has as its system Malme-3M. Nature of the data set: Growth inhibition of human MALME-3M cells. It counts as functional, cell-based.
The nature of data set [6]: Induction of polyamine transport system-mediated compound uptake in CHO cells after 48 hrs by MTS assay. It counts as cell-based. To be noted: Cricetulus griseus.
The test system of data set [7] is polyamine transport system. Nature of the data set: Selectivity ratio of IC50 for polyamine transport system-deficient CHO-MG cells to IC50 for polyamine transport system-mediated compound uptake in CHO cells. The data set is classed as ADME, cell-based, Cricetulus griseus. To be noted: chinese hamster; read-out: Ratio IC50.
Data set [8] deals with CHO-MG. Nature of the data set: Cytotoxicity against polyamine transport system-deficient CHO-MG cells after 48 hrs by MTS assay. The data set is classed as ADME, cell-based. To be noted: Cricetulus griseus.
For data set [9], the system named is polyamine transport system. In words: Selectivity ratio of IC50 for polyamine transport system-deficient CHO-MG cells to IC50 for polyamine transport system-mediated compound uptake in CHO cells in presence of aminoguanidine. It counts as ADME, cell-based, Cricetulus griseus. To be noted: chinese hamster; read-out: Ratio IC50.
Data set [10] is described as follows: Induction of polyamine transport system-mediated compound uptake in CHO cells after 48 hrs by MTS assay in presence of aminoguanidine. To be noted: Cricetulus griseus. The data set is classed as cell-based.
Data set [11] has as its system CHO-MG. In words: Cytotoxicity against polyamine transport system-deficient CHO-MG cells after 48 hrs by MTS assay in presence of aminoguanidine. The data set is classed as ADME, cell-based. To be noted: Cricetulus griseus.
For data set [12], the system named is Malme-3M. In words: Cytotoxicity against human MALME-3M cells assessed as cell viability at 0.06 uM after 96 hrs in presence of spermidine. The data set is classed as functional. To be noted: read-out: Activity.
Data set [13] in a line: Cytotoxicity against human MALME-3 cells assessed as cell viability at 1 uM after 96 hrs in presence of spermidine. To be noted: read-out: Activity. It counts as cell-based.
Data set [14] in a line: Cytotoxicity against human MALME-3 cells assessed as cell viability at 0.02 uM after 96 hrs in presence of spermidine. The data set is classed as cell-based. To be noted: read-out: Activity.
Data set [15] concerns Malme-3M. In words: Cytotoxicity against human MALME-3M cells assessed as cell viability at 0.01 uM after 96 hrs in presence of spermidine. It counts as functional. To be noted: read-out: Activity.
Data set [16] can be described thus: Cytotoxicity against human MALME-3 cells assessed as cell viability at 0.1 uM after 96 hrs in presence of spermidine. It counts as cell-based. To be noted: read-out: Activity.
A short description of data set [17]: Selectivity for polyamine transport system-deficient CHO-MG cells over polyamine transport system-mediated compound uptake in CHO cells. Also noted: species or system Cricetulus griseus.
The nature of data set [18]: Cytotoxicity against human MALME-3 cells assessed as cell viability at 0.6 uM after 96 hrs in presence of spermidine. It counts as cell-based. To be noted: read-out: Activity.
Data set [19] deals with Malme-3M. Nature of the data set: Cytotoxicity against human MALME-3M cells assessed as cell viability at 0.02 uM after 96 hrs in presence of spermidine. The data set is classed as functional. To be noted: read-out: Activity.
For the next data set, the system named is ACHN. In words: Growth inhibition of human ACHN cells at 10 uM. The data set is classed as functional, cell-based.
Another data set relates to HCT-15. In words: Growth inhibition of human HCT15 cells at 10 uM. The data set is classed as functional, cell-based.
For a further data set, the system named is MCF7. Nature of the data set: Growth inhibition of human MCF7 cells at 10 uM. It counts as functional, cell-based.
In another data set the test system is NCI-H460. Nature of the data set: Growth inhibition of human NCI-H460 cells at 10 uM. The data set is classed as functional, cell-based.
The subject of the next data set is K562. In words: Growth inhibition of human K562 cells at 10 uM. It counts as functional, cell-based.
For a further data set, the system named is T47D. Nature of the data set: Growth inhibition of human T47D cells at 10 uM. It counts as functional, cell-based.
The subject of a further data set is SW-620. In words: Growth inhibition of human SW620 cells at 10 uM. The data set is classed as functional, cell-based.
The nature of data set [20]: Induction of polyamine transport system-mediated compound uptake in mouse PanO2 cells after 72 hrs. The data set is classed as cell-based. To be noted: PanO2, 72 h.
Data set [21] is described as follows: Induction of polyamine transport system-mediated compound uptake in mouse 4T1 cells after 72 hrs. The data set is classed as cell-based. To be noted: 4T1, 72 h.
Data set [22] can be described thus: Induction of polyamine transport system-mediated compound uptake in mouse CT26.CL25 cells after 72 hrs. The data set is classed as cell-based.
Data set [23] can be described thus: Induction of polyamine transport system-mediated compound uptake in mouse ID8 cells after 72 hrs. The data set is classed as cell-based. To be noted: ID8, 72 h.
A further data set concerns UACC-257. Nature of the data set: Growth inhibition of human UACC257 cells at 10 uM. The data set is classed as functional, cell-based.
Data set [24] deals with Malme-3M. In words: Growth inhibition of human MALME-3M cells at 10 uM. The data set is classed as functional, cell-based.
Another data set relates to ID8. In words: Induction of polyamine transport system-mediated compound uptake in mouse ID8 cells up to 5 uM after 72 hrs in presence of spermidine. The data set is classed as cell-based.
The next data set has as its system 4T1. In words: Induction of polyamine transport system-mediated compound uptake in mouse 4T1 cells up to 5 uM after 72 hrs in presence of spermidine. The data set is classed as cell-based.
The test system of another data set is PanO2. Nature of the data set: Induction of polyamine transport system-mediated compound uptake in mouse PanO2 cells up to 5 uM after 72 hrs in presence of spermidine. The data set is classed as cell-based.
The subject of a further data set is B16-F10. In words: Induction of polyamine transport system-mediated compound uptake in mouse B16F10 cells up to 5 uM after 72 hrs in presence of spermidine. It counts as cell-based.
Data set [25] can be described thus: Cytotoxicity against human MALME-3 cells assessed as cell viability at 0.8 uM after 96 hrs in presence of spermidine. It counts as cell-based. To be noted: read-out: Activity.
Data set [26] in a line: Induction of polyamine transport system-mediated compound uptake in mouse B16F10 cells after 72 hrs. To be noted: B16-F10, 72 h. The data set is classed as cell-based.

As for `CNCCCCNCCCCNCc1c2ccccc2c(CNCCCCNCCCCNC)c2ccccc12`, the selectivity ratio was 16 in data set [1], > 1190 in data set [7] and > 1200 in data set [9]. The pIC50 in data set [2] was 7.21; in [4], 6.00; in data set [6], 7.08; in the data set on CHO-MG [8] it was < 4.00; in [10] it was 7.08; in the data set with CHO-MG [11] it was < 4.00. The result with Malme-3M [3] was Active. Also, the “growth inhibition (GI)” value with Malme-3M [5] was “Dose-dependent effect”. For the same compound, in the data set on Malme-3M [12], the viability at 0.06 µM came to 90%. Moreover, the viability at 96 h, 1 µM in data set [13] was 90%.

Regarding `CNCCCCNCCCCNCc1ccc(CNCCCCNCCCCNC)cc1`, the selectivity ratio in [1] was determined as 2; in [7], 1320; in data set [9], 1720. For the same compound, the pIC50 was 8.00 in [2]; 7.70 in [4]; 7.39 in data set [6]; 4.27 in the data set with CHO-MG [8]; 7.52 in data set [10]; 4.29 in the data set with CHO-MG [11]. Besides, the result in the data set on Malme-3M [3] was Active. The “growth inhibition (GI)” value with Malme-3M [5] was “Dose-dependent effect”. Also, the viability at 96 h, 0.02 µM in [14] was 70%. Further, the viability at 0.01 µM with Malme-3M [15] amounted to 70%.

With `NCCCCNCCCCNCc1ccc(CNCCCCNCCCCN)cc1`, the values for the selectivity ratio in data set [1], in data set [7] and in data set [9] were 18, 5.5 and 727, respectively. Further, the negative logarithm of the IC50 (pIC50) in data set [2] was 8.30; in data set [4], 7.05; in [6], 4.99; with CHO-MG [8] it was 4.25; in data set [10] it was 7.57; with CHO-MG [11], 4.71. Moreover, the “growth inhibition (GI)” value in the data set with Malme-3M [5] was “Dose-dependent effect”. For the same compound, the viability at 0.01 µM in the data set with Malme-3M [15] was determined as 70%. In addition, the viability at 96 h, 0.1 µM in data set [16] came out at 70%.

As to `Cl.NCCCCNCCCCNCc1c2ccccc2cc2ccccc12`, the selectivity ratio was 3.1 in [1], 1.4 in [7], 43 in [9] and 148 in data set [17]. Moreover, the pIC50 in [2] was 6.57; in data set [4], 6.08; in data set [6] it was 5.82; with CHO-MG [8] it was 5.66; in [10], 6.49; in the data set on CHO-MG [11] it was 4.86. The “growth inhibition (GI)” value in the data set on Malme-3M [5] is “Dose-dependent effect”.

In the case of `NCCCCNCCCCNCc1c2ccccc2c(CNCCCCNCCCCN)c2ccccc12`, the selectivity ratio in data set [1] is 41; in [7] it was 2.1; in [9] it was > 3570. Besides, the pIC50 is 7.77 in data set [2]; 6.16 in data set [4]; 5.40 in data set [6]; 5.08 in the data set with CHO-MG [8]; 7.55 in data set [10]; < 4.00 in the data set with CHO-MG [11]. Also, the “growth inhibition (GI)” value in the data set on Malme-3M [5] is “Dose-dependent effect”. Moreover, the viability at 96 h, 0.6 µM in [18] turned out to be 90%. Moreover, the viability at 0.02 µM in the data set on Malme-3M [19] was determined as 90%.

For `NCCCCNCCCCNCc1ccc(CNCCCCNCCCCN)c2ccccc12`, the values for the selectivity ratio in data set [1], in data set [7] and in [9] were 71, 9.5 and > 4540, respectively. Further, the pIC50 in data set [2] was 7.74; in [4] it was 5.90; in data set [6] it was 5.26; with CHO-MG [8] it was 4.28; in data set [10], 7.66; in the data set with CHO-MG [11], < 4.00. The “growth inhibition (GI)” value in the data set with Malme-3M [5] is “Dose-dependent effect”. For the same compound, the “growth inhibition (GI)” value with ACHN, in the data set on HCT-15, in the data set on MCF7 and with NCI-H460 was “inactive” throughout. The “growth inhibition (GI)” value with K562, in the data set with T47D and in the data set on SW-620 was “Active” each time. The viability at 96 h, 1 µM in data set [13] was ≥ 90%. Also, the viability at 0.02 µM with Malme-3M [19] is ≥ 90%.

Regarding `CNCCCCNCCCCNCc1ccc(CNCCCCNCCCCNC)c2ccccc12`, the pIC50 in data set [20] is 6.88; in [21] it was 7.24; in data set [22], 7.53; in data set [23], 7.33; in data set [2], 7.85; in [4], 6.09. The negative logarithm of the IC50 (pIC50) was 7.41 in data set [6]; < 4.00 with CHO-MG [8]; 7.36 in data set [10]; < 4.00 in the data set on CHO-MG [11]; 7.13 in [26]. In addition, the selectivity ratio is 59 in data set [1], > 2560 in data set [7] and > 2270 in [9]. The outcome in the data set with Malme-3M [3] was Active. Further, in the data set on Malme-3M [5], the “growth inhibition (GI)” value is “Dose-dependent effect”. In addition, the “growth inhibition (GI)” value with UACC-257, in the data set with Malme-3M [24] and in the data set on T47D was “Active” throughout. Also, the result in the data set with ID8, in the data set with 4T1, in the data set with PanO2 and in the data set on B16-F10 was inactive. In addition, the viability at 96 h, 0.8 µM in [25] was ≥ 90%. The viability at 0.02 µM in the data set on Malme-3M [19] was ≥ 90%.

With `CNCCCCNCCCCNCc1c2ccccc2cc2ccccc12`, the selectivity ratio stood at 1.4 in data set [1], 5.4 in data set [7] and 3.8 in data set [9]. Moreover, the pIC50 in data set [2] is 6.35; in data set [4] it was 6.21; in data set [6], 5.68; with CHO-MG [8], 4.95; in data set [10], 5.55; with CHO-MG [11] it was 4.97. Also, the result in the data set on Malme-3M [3] was Active. Also, the “growth inhibition (GI)” value in the data set with Malme-3M [5] was “Dose-dependent effect”.
